Experimental findings from publication PMC9606187, “Dual HDAC/BRD4 Inhibitors Relieves Neuropathic Pain by Attenuating Inflammatory Response in Microglia After Spared Nerve Injury” (Neurotherapeutics, 2022) are described below.

The test system of assay [1] is IBA1 (microglia marker). The experiment in a line: Immunofluorescence of lumbar spinal cord, IBA1. The assay is classed as in vivo. Conditions: lumbar spinal cord of SNI mice, day 14. On the procedure: On postsurgical day 14, animals were perfused transcardially with 4% paraformaldehyde in 0.1 M phosphate buffer (PBS, pH 7.4). After perfusion, lumbar spinal cord was quickly removed and processed as previously described. Four animals per groups were used for this analysis. […] Primary antibody used was IBA1 (1:100; Santa Cruz Biotechnology Cat# sc-32725, RRID:AB_667733). After rinsing in PBS containing 0.01% Triton-X-100, sections were incubated in secondary antibodies labeled with Invitrogen Alexa Fluor 488 (490–525, 1:400; Thermo Fisher Scientific), Invitrogen Alexa Fluor 568 (578–603, 1:400; Thermo Fisher Scientific), Cruz Fluor 594 (592–614, 1:400; Santa Cruz Biotechnology) at room temperature for 2 h. Sections were coverslipped using Vectorshield mounting medium (Vector Laboratories, Burlingame, CA). A Leica DM6000B fluorescence microscope equipped with a DFC350FX digital camera with appropriate excitation and emission filters for each fluorophore was used to acquire representative images. Images were acquired with × 5 to × 40 objectives using a digital camera. The immunofluorescence intensity was calculated by ImageJ (Wayne Rasband, National Institute of Health, USA).

Assay [2] deals with T1, HDAC1 (Homo sapiens, UniProt Q13547).
T1 construct: endogenous in cells; host or cells: HCT-116
T1 sequence (Q13547 whole entry): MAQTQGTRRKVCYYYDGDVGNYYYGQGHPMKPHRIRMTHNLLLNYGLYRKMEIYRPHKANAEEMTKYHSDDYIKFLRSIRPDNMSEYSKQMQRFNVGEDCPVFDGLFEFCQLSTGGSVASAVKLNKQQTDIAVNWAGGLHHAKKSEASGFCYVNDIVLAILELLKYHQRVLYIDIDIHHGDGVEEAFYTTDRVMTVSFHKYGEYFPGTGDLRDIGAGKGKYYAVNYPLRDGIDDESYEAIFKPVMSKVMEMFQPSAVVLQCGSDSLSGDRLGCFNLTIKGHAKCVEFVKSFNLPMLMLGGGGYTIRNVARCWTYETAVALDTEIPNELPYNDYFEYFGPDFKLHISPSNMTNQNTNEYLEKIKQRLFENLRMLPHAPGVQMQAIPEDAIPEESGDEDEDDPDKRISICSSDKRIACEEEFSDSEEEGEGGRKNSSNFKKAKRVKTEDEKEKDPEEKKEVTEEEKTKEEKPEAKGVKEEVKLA
The experiment in a line: HDAC1 immunoprecipitation & activity assay on treated HCT-116 cells. Conditions: HCT-116 cells treated at 10 µM for 12 h; in comparison with SAHA. It is filed as cell-based. On the procedure:
HDAC assay: To test the inhibition activity of compounds, the HDAC1 immunoprecipitation (IP) & Activity Assay Kit (Catalog # K342-25; Biovision) was used under the protocol provided by the kit. HCT-116 cell lines were plated in 6 wells and treated with the investigated compounds at 10 µM for 12 h. After incubation, the media was removed, and the cells were washed with PBS (EuroClone) solution (2X). Then, 200 µl/well of lysis buffer with protease inhibitor was added and the cells were scraped and incubated in ice for 30 min. After centrifugation at 10,000 g for 10 min at 4 °C, the supernatant was collected. One hundred micrograms of each extract was incubated with 6 µl of Rabbit HDAC1 antibody and Rabbit IgG and the volume was reached to 500 µl with PBS with protease inhibitors. After incubation at 4 °C overnight a rotary mixer, 25 µl of the protein-A/G bead slurry, previously washed with PBS (2X), was added to the samples and incubated for 1 h at 4 °C. The beads were recovered after 3 washes with 1 ml PBS, by centrifuging at 14,000 g for ~ 10 s and used for HDAC assay.
HDAC assay preparation: For each reaction, 168 µl reaction mix containing HDAC assay buffer and HDAC substrate was prepared, added to the sample and to background control tube, and incubated at 37 °C for 2 h. SAHA was used as a positive control. […] The fluorescence was read at Ex/Em = 380/500 nm with Tecan M1000 plate reader.

In assay [3] the test system is BRD4. The assay can be described thus: Western blot of lumbar spinal cord, BRD4. The settings on record: SNI ipsilateral side, day 7 and 14 post-surgery, i.n. The assay is classed as in vivo, mice. Here is the method:
(§1) The lumbar spinal cord was removed 7 and 14 days after surgery and 90 min after the intranasal administration of SUM52, corresponding to the peack of the effect. Samples (n = 4 for groups) were homogenized in a homogenization buffer and processed as previously described. Protein samples (40 µg of protein/sample) were separated on 10% SDS-PAGE and transferred onto nitrocellulose membranes (120 min at 100 V) using standard procedures. Membranes were blocked in PBST (PBS containing 0.1% Tween) containing 5% nonfat dry milk for 120 min. […] Blots were then extensively washed and developed using enhanced chemiluminescence detection system (Pierce, Milan, Italy) and signal intensity (pixels/mm^2) quantified (ImageJ, NIH). […] For each sample, the signal intensity was normalized to that of total protein stained by Ponceau S and the acquired images were quantified using Image Lab software. […]

The test system of assay [4] is IL-6. The assay can be described thus: Western blot of lumbar spinal cord, IL-6. Conditions: SNI ipsilateral side, day 7 and 14. It is filed as in vivo, mice. On the procedure:
as §1
For orientation: In western blotting, separated proteins are transferred to a membrane and probed.

The subject of assay [5] is p65 subunit of NF-kB (phosphorylated). The assay can be described thus: Western blot of lumbar spinal cord, p-NF-kB p65. The assay is classed as in vivo, mice. The settings on record: SNI ipsilateral side, day 7 and 14. Here is the method:
as §1

The subject of assay [6] is SNI mice. The assay can be described thus: Mechanical allodynia (Dynamic Plantar Aesthesiometer) in SNI mice. It is filed as in vivo.
Protocol: Mice were randomly assigned to each treatment group. […] Maria Novella Romanelli, iBET762 (molibresib; (4S)-6-(4-Chlorophenyl)-N-ethyl-8-methoxy-1-methyl-4H-[1,2,4]triazolo[4,3,a][1,4] benzodiazepine-4-acetamide, and SAHA (vorinostat; suberoylanilide hydroxamic acid) (Sigma-Aldrich, Italy) were administered 15 min before the tests. Drugs were dissolved in 5% DMSO. Drug concentrations were prepared in such a way that the necessary dose could be administered in a volume of 10 µl per mouse by intranasal (i.n.) administration. The experimental protocol to test the effect of treatments on behavioral and in vitro tests included 3 control groups: untreated, vehicle (5% DMSO), and saline.
For i.n. administration, mice were slightly anesthetized by 2% isoflurane inhalation and placed in a supine position [30]. A 5 μl aliquot of solution (treatments or vehicle) was slowly dropped alternatively to each nostril with a micropipette tip.
Behavioral testing was performed before surgery to establish a baseline for comparison with post-surgical values. Mono-neuropathy was induced by spared nerve injury and this model of pain in mice has been in use for several years [31]. The SNI procedure was performed as previously described [31].
Animals were habituated to the testing environment daily for at least 2 days before baseline testing. To evaluate onset and progression of pain hypersensitivity, neuropathic mice were monitored by measuring nociceptive responses every 30 min for 3 h before surgery or 3, 7, 10, and 14 days after nerve surgery. Experiments were performed on post-surgery day 7 and 14 when the pain hypersensitivity was well established. Each mouse served as its own control, the responses being measured both before and after surgery. All testing was performed with a blind procedure.
Mechanical allodynia was measured by using Dynamic Plantar Aesthesiometer (Ugo Basile, Bologna, Italy), as described [32]. Nociceptive response for mechanical sensitivity was expressed as mechanical paw withdrawal threshold (PWT) in grams. PWT was quantified by an observer blinded to the treatment.

Regarding `Cc1nnc2n1-c1ccccc1C(c1ccccc1)=N[C@H]2CC(=O)NCCCCCCC(=O)NO` [SUM52, (S)-N-hydroxy-7-(2-(1-methyl-6-phenyl-4H-benzo[f][1,2,4]triazolo[4,3-a][1,4]diazepin-4-yl)acetamido)heptanamide], the IBA1 immunostaining result in assay [1] was “significantly reduced”. Moreover, the “inhibition of HDAC1 enzymatic activity” value in assay [2] is reported as “Partial inhibition”. For the same compound, the “spinal BRD4 protein expression” value in assay [3] is given as “restored both epigenetic enzyme levels to control values”. The IL-6 expression entry in assay [4] is reported as “drastically reduced”. Also, the “phosphorylation of the p65 subunit of NF-kB” value in assay [5] was “robustly reduced by SUM52 up to baseline values”. Moreover, in assay [6] (10–100 µM i.n.), the “mechanical antiallodynic activity, ipsilateral side” value is recorded as “attenuated SNI-induced mechanical allodynia”. The “duration of activity in attenuating mechanical allodynia compared with SUM35” value in assay [6] (SUM52 50 µM vs SUM35 100 µM) is recorded as “more prolonged activity”. Further, the “efficacy in attenuating mechanical allodynia compared with SUM35” value in assay [6] (SUM52 50 µM vs SUM35 100 µM, day 7 and 14 post-surgery) is given as “higher efficacy”. Also, in assay [6] (contralateral (uninjured) side of SNI mice), the “mechanical analgesic effect in the contralateral side” value is listed as “absence”. The “mechanical antiallodynic efficacy compared with SAHA + iBET762 combination” value in assay [6] (time-course comparison, combination i-BET762 10 µg, SAHA 3 µg) is “comparable efficacy”.
